From US9504729B2, “Antiangiogenic small molecules and methods of use” (The United States of America, as represented by the …, priority 2009, dated 2016)

Columns and labels:
in vitro = details: pig
KDR(VEGFR2) = KDR(VEGFR2) (Homo sapiens, UniProt P35968); assay: SelectScreen kinase activity profiling, KDR(VEGFR2); format: biochemical; design: % Inhibition / Mean % Inhibition: concentration or dose not given beside the values; details: KDR(VEGFR2); for Mean % Inhibition: mean of two independent trials
Description: (§1) To characterize the RTK inhibitory activity of the antiangiogenic SMs described herein, 36 compounds were chosen and screened using Invitrogen's SelectScreen® kinase activity profiling service (described on-line at tools.invitrogen.com/content.cfm?pageid=10413#selection). VEGFR1 and FGFR2 RTK inhibitory activities were studied. […] Overall, a small minority of the SMs tested had any substantial kinase inhibitory activity. This observation supports a mechanism of antiangiogenic action other than RTK inhibition for most of the SMs described herein.

FGFR1 = FGFR1 (Homo sapiens, UniProt P11362); assay: SelectScreen kinase activity profiling, FGFR1; format: biochemical; design: concentration or dose not given beside the values; details: for Mean % Inhibition: mean of two independent trials
Description: as §1

[1] = first of two independent trials
[2] = second of two independent trials

Sequence of FGFR1 (P11362 398-822 limits assumed): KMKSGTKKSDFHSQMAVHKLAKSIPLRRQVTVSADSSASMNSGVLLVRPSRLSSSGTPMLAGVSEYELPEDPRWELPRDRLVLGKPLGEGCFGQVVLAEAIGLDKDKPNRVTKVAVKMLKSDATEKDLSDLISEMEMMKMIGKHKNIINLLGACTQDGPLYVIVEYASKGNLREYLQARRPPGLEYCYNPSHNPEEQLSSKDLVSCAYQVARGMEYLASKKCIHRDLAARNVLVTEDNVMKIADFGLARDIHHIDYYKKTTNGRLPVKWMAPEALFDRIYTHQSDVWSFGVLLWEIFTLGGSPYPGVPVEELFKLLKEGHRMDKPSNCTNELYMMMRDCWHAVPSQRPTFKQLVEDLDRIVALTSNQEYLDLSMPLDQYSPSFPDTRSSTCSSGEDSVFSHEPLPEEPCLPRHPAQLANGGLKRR
Sequence of KDR(VEGFR2) (P35968 20-1356): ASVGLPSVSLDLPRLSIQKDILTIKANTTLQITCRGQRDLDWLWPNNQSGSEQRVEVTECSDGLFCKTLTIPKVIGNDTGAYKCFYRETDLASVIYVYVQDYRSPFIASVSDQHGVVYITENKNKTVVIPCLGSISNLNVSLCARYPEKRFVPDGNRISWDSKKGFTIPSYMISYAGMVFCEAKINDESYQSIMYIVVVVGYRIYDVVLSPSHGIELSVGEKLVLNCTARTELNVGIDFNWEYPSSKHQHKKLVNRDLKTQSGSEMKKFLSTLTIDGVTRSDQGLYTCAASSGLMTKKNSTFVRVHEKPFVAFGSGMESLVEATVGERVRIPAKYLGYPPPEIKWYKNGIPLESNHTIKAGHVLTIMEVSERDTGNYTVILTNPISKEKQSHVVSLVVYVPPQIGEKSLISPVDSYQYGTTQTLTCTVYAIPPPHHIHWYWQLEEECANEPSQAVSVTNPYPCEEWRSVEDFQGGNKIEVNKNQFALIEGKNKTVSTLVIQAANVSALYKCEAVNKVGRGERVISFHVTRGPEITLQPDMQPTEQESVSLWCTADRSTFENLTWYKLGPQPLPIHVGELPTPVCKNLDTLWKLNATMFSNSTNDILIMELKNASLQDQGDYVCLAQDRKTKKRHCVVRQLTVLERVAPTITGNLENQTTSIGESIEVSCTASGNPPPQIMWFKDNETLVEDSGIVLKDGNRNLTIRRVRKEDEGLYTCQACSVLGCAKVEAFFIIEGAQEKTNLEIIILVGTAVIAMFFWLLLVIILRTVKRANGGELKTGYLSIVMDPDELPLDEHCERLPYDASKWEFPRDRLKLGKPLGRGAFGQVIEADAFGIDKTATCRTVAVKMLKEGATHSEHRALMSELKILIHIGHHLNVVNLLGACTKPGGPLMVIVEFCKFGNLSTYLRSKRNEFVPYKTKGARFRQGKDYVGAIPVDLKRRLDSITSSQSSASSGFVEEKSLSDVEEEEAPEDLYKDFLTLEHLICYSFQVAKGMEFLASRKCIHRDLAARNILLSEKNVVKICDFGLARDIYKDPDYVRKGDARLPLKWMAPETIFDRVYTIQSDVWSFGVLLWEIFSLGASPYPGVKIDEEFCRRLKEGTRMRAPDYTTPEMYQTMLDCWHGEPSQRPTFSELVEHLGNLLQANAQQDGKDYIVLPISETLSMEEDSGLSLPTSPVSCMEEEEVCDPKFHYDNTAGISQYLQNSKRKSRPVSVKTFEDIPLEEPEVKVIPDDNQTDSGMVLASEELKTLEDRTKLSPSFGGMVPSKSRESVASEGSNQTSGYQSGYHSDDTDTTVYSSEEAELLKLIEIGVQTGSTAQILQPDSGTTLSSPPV

Compound	cytotoxicity (in vitro) [%]	% Inhibition (KDR(VEGFR2); [1]) [%]	Mean % Inhibition (KDR(VEGFR2)) [%]	% Inhibition (KDR(VEGFR2); [2]) [%]	% Inhibition (FGFR1; [1]) [%]	Mean % Inhibition (FGFR1) [%]	% Inhibition (FGFR1; [2]) [%]
Nc1ccn(C2OC(CO)C3[O][Sn]([c]4ccccc4)([c]4ccccc4)[O]C32)c(=O)n1 (stereo not shown) [Compound 36, 4-amino-1-[6-(hydroxymethyl)-2,2-diphenyl-3a,4,6,6a-tetrahydrofuro[3,4-d][1,3,2]dioxastannol-4-yl]pyrimidin-2-one]	7.66						
CC(C)(C)c1cc(O)ccc1O [Compound 38, 2-tert-butylbenzene-1,4-diol]	6.74						
Cc1cc(O)c(-c2cc(O)c(C)cc2O)cc1O [Compound 40, 2-(2,5-dihydroxy-4-methylphenyl)-5-methylbenzene-1,4-diol]	7.23						
Cc1ccc(S(=O)(=O)OCC(=O)O)cc1 [Compound 41, 2-(4-methylphenyl)sulfonyloxyacetic acid]	7.59						
CC1(C)[C@@H]2CC[C@]1(C)[C@H](OC(=O)CSC#N)C2 [Compound 42, [(1S,4R,6R)-1,7,7-trimethyl-6-bicyclo[2.2.1]heptanyl]2-thiocyanatoacetate]	6.99						
CS(=O)(=O)c1ccc(/C=N/NC(N)=S)cc1 [Compound 43, [(E)-(4-methylsulfonylphenyl)methylideneamino] thiourea]	6.44						
COc1ccc(NCc2c(O)ccc3ccccc23)cc1 [Compound 44, 1-[(4-methoxyanilino)methyl]naphthalen-2-ol]	6.45						
Cc1cc(O)c(-c2cc(O)c(C)cc2O)cc1O [compound 2805]		42	47	52	1	6	10
CC1(C)C2CCC1(C)C(OC(=O)CSC#N)C2 (stereo not shown) [compound 3535]		10	8	5	−1	−2	−3
CC(C)(C)c1cc(O)ccc1O [compound 4972]		2	7	11	3	−2	−7
OC(c1cc(-c2ccccc2)nc2c1ccc1ccccc12)C1CCCCN1 (stereo not shown) [compound 13480]		4	3	2	5	8	10
Cc1ccc(S(=O)(=O)OCC(=O)O)cc1 [compound 16555]		11	11	11	3	3	3
O=C(c1no[n+]([O-])c1C(=O)c1csc2ccccc12)c1csc2ccccc12 [compound 18877]		10	7	4	−3	−2	0
CS(=O)(=O)c1ccc(/C=N/NC(N)=S)cc1 [compound 27063]		12	11	11	−3	−3	−2
NC(=O)SCC(=O)Nc1ccc2ncccc2c1 [compound 36738]		16	16	17	−1	1	4
COc1ccc(NCc2c(O)ccc3ccccc23)cc1 [compound 47924]		21	19	18	1	2	3
O=[As](O)(O)c1ccc(Cc2ccc([As](=O)(O)O)cc2)cc1 [compound 48300]		76	77	78	8	9	10
CC(C)(C)c1c2c(c(C(C)(C)C)c3c1OCN(Cc1ccccc1)C3)OCN(Cc1ccccc1)C2 [compound 48458]		13	11	9	5	6	8

Compound	cytotoxicity (in vitro) [%]	% Inhibition (KDR(VEGFR2); [1]) [%]	Mean % Inhibition (KDR(VEGFR2)) [%]	% Inhibition (KDR(VEGFR2); [2]) [%]	% Inhibition (FGFR1; [1]) [%]	Mean % Inhibition (FGFR1) [%]	% Inhibition (FGFR1; [2]) [%]
O=C(O)C1CCCN1Cc1ccc2c(c1)OCO2 (stereo not shown) [compound 108895]		5	6	6	4	4	4
CC1=C(Br)C(=O)C(C)=C(Br)C1=O.Cc1c(O)c(Br)c(C)c(O)c1Br [compound 112200]		100	99	99	9	7	5
O=C(O)c1c(Br)c(Br)c(Br)c(Br)c1C1c2ccc(O)cc2Oc2cc(O)ccc21 [compound 119889]		103	103	104	96	96	95
C1=Cc2ccccc2C1.C=C(C)c1ccccc1.[N-]=[N+]=Nc1ccccc1 [compound 122351]		4	4	4	−1	1	4
O=[N+]([O-])c1ccc(S(=O)(=O)Cc2ccccc2)c([N+](=O)[O-])c1 [compound 122657]		14	14	14	−3	−3	−3
CC(C)(C)c1cc(C#N)cc(Br)c1OP(=O)(Oc1c(Br)cc(C#N)cc1C(C)(C)C)c1ccccc1 [compound 203328]		9	8	7	4	4	4
S=C1SCN(C2CCCCCCCCCCC2)CN1C1CCCCCCCCCCC1 [compound 209910]		9	10	10	2	4	5
COc1ccc(CC2C(=O)NC(C)C(=O)N(C)C3C(=O)N(C)C(Cc4ccc(O)c(c4)Oc4ccc(cc4)C3O)C(=O)NC(C)C(=O)NC(C)C(=O)N2C)cc1 (stereo not shown) [compound 259968]		8	8	9	5	3	2
CCCCC[CH2][Hg][S]c1nc(N)nc2[nH]cnc12 [compound 268879]		40	39	38	3	1	−2
CC(=N[N-]C(=S)SCc1ccccc1)c1ccccn1.[Cl][Cu+] [compound 295642]		19	18	17	2	6	9
CSC(=[SH+])[N-]N=Cc1cccc(C)n1.CSC(=[SH+])[N-]N=Cc1cccc(C)n1.[Cu] [compound 310551]		21	20	18	−5	−3	−1
CSC(=[SH+])[N-]N=C(c1ccccn1)c1ccccn1.[Cu][Br] [compound 321206]		52	49	45	5	5	5
Nc1cc[c]([Hg])cc1.Nc1nc2c(ncn2C2OC(CO)C(O)C2O)c(=[SH+])[nH]1 (stereo not shown) [compound 321237]		105	105	104	7	6	5
O=C1c2ccccc2NC(c2cc(Cl)cc(Cl)c2O)N1CCc1ccccn1 (stereo not shown) [compound 328087]		9	9	9	3	4	5
CC(C)(O)/C=C/C(=O)C(C)(O)C1C(O)CC2(C)C3CC=C4C(C=C(O)C(=O)C4(C)C)C3(C)C(=O)CC12C (stereo not shown) [compound 521777]		10	9	8	1	1	0
CC1(C)CC(Nc2ccc(Nc3ccccc3)cc2)CC(C)(C)N1 [compound 632536]		15	16	16	1	4	7
COc1ccc(-c2csc3c2-n2cccc2C3=O)cc1 [compound 676693]		1	5	8	4	3	3
COC(=O)c1ccc(CCc2cc(O)ccc2O)cc1 [compound 681152]		10	9	8	4	3	3
